Where “and” joins values, the source holds several entries; their conditions need not be identical. Equal entries are not always repeated.
Tests used:
Assay type in all cases: cell-based
[1] = target: T1, CHRM2 (Homo sapiens, UniProt P08172); experiment: PathHunter β-arrestin assay; conditions: control agonist
T1 sequence (P08172 1-466): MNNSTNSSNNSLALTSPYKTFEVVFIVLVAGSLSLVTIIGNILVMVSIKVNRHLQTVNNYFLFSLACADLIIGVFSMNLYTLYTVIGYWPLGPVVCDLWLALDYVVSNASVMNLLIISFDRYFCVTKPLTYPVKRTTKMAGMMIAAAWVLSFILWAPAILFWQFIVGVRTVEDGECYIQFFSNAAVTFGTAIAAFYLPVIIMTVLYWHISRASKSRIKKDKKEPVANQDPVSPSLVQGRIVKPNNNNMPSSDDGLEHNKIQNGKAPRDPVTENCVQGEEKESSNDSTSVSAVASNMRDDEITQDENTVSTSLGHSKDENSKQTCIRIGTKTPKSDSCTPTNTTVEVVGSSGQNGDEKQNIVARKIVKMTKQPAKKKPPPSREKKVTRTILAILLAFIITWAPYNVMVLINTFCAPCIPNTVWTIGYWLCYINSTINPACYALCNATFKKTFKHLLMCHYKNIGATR

[2] = target: CHRM3 (Homo sapiens, UniProt P20309)
CHRM3, sequence (P20309 whole entry): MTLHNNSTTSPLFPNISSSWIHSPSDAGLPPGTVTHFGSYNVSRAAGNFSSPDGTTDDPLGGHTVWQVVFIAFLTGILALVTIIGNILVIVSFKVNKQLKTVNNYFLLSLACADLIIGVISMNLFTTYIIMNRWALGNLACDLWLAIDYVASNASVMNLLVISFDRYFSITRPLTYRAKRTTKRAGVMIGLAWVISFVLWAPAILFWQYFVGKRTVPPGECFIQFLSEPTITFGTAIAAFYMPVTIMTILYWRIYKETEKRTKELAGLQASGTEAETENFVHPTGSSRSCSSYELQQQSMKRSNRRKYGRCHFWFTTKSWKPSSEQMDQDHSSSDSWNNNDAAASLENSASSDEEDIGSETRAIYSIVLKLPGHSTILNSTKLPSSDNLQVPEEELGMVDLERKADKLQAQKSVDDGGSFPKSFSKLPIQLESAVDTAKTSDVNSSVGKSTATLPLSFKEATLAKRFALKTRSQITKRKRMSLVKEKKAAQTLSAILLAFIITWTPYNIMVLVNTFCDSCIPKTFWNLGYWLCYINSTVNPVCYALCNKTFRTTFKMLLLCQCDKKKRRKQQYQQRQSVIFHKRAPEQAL

[3] = target: T2, CHRM5 (Homo sapiens, UniProt P08912); experiment: PathHunter β-arrestin assay; conditions: screen, control agonist; CHO, 37C, 2HR
T2 construct: purchased Eurofins DiscoverX (PathHunter gpcrMAX)
T2 sequence (P08912 whole entry): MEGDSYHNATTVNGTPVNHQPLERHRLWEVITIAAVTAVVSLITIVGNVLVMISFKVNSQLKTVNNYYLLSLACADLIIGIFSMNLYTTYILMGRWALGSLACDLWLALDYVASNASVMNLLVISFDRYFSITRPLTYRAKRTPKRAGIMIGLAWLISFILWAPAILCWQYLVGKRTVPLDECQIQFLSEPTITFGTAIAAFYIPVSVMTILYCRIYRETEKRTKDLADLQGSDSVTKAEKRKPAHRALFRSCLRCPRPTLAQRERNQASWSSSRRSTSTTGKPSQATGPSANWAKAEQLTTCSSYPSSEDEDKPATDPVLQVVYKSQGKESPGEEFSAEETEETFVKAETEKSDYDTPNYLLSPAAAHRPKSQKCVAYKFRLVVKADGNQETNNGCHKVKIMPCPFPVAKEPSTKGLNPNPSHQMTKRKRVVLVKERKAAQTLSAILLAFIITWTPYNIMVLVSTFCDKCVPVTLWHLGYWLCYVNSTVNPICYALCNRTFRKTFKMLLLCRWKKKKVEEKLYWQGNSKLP

[4] = target: T3, CHRM4 (Homo sapiens, UniProt P08173); experiment: PathHunter β-arrestin assay; conditions: screen, control agonist; CHO, 37C, 2HR
T3 construct: purchased Eurofins DiscoverX (PathHunter gpcrMAX)
T3 sequence (P08173 whole entry): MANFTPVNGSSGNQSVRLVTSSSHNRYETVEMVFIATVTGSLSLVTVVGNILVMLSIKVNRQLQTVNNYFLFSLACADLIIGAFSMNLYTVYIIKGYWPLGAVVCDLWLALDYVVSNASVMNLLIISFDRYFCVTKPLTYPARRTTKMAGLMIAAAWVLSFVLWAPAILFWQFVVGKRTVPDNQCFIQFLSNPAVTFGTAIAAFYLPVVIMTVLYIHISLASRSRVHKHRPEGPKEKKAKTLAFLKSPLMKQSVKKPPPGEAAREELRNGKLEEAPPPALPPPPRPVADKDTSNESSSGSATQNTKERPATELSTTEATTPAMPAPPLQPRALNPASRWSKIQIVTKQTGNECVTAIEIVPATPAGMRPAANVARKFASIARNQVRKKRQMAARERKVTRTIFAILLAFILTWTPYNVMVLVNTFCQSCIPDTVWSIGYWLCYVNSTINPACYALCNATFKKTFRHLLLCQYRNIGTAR

[5] = target: T4, CNR2 (Homo sapiens, UniProt P34972); experiment: PathHunter β-arrestin assay; conditions: screen, control agonist; CHO, RT, 2HR
T4 construct: purchased Eurofins DiscoverX (PathHunter gpcrMAX)
T4 sequence (P34972 whole entry): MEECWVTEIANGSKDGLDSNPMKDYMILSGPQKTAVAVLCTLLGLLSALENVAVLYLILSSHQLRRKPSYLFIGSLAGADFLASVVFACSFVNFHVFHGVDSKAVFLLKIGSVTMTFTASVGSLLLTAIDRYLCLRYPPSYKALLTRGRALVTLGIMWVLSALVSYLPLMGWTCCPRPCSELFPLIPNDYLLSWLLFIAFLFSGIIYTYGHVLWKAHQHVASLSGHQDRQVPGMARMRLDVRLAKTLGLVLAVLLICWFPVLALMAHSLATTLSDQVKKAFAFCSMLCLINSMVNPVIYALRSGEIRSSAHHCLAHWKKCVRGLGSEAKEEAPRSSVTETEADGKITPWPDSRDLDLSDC

[6] = test system: AtT20 cells wildtype (WT); experiment: LDH release cytotoxicity assay; conditions: 30 μM
Method: AtT20 cells expressing either human CB1 (hCB1) or CB2 (hCB2) receptors or wildtype (WT) were grown to confluence in T75 cm^2 flasks in Dulbecco's modified eagle medium containing 10% fetal bovine serum, 100 U penicillin/streptomycin, and 80 μg/mL hygromicyin (Sigma-Aldrich/Merck; Castle Hill, NSW, Australia). Cells were plated in 96-well-microplates at 30,000 cells per well and allowed to adhere overnight in 5% CO2. The following morning, cells were treated with either vehicle (0.1% DMSO; negative control), 30 μM Δ^9-THC, or 30 μM AMB-FUBINACA. At 1 or 6 h, the amount of lactate dehydrogenase in the cell media was tested, and compared with positive control (lysed cells) as per manufacturer's instructions (Dojindo Molecular Technologies, Inc.; Rockville, MD, USA), with readings performed on a Clariostar Plus plate reader (BMG Labtech, Mornington, VIC, Australia). Experiments were performed in triplicate. In order to measure any accumulating LDH, media was not changed after initial incubation. Data is represented as means ± S.E.M. A two-way ANOVA with was performed on the data at each time point, with Tukey's multiple comparison test (α = 0.05). A p < 0.05 was considered statistically significant.

[7] = target: T5, CNR1 (CB1) (Homo sapiens, UniProt P21554); experiment: PathHunter β-arrestin assay; conditions: screen, control agonist; CHO, 37C, 2HR
T5 construct: host or cells: CHO
T5 sequence (P21554 whole entry): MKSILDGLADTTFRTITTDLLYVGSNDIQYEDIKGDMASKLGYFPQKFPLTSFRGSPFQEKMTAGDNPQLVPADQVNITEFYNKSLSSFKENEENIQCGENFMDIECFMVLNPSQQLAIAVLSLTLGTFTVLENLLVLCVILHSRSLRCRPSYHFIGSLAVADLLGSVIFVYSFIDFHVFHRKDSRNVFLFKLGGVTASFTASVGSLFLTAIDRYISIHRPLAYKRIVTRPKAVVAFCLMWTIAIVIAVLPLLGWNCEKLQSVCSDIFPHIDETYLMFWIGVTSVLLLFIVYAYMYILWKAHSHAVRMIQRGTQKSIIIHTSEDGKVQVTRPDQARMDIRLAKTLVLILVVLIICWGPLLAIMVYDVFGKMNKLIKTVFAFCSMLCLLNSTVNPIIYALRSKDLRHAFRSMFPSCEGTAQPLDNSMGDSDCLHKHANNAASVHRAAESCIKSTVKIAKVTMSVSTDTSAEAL

[8] = target: T6, CRTH2 (Homo sapiens, UniProt Q9Y5Y4); experiment: PathHunter β-arrestin assay; conditions: screen, control agonist; U2OS, RT, 2HR
T6 construct: purchased Eurofins DiscoverX (PathHunter gpcrMAX)
T6 sequence (Q9Y5Y4 whole entry): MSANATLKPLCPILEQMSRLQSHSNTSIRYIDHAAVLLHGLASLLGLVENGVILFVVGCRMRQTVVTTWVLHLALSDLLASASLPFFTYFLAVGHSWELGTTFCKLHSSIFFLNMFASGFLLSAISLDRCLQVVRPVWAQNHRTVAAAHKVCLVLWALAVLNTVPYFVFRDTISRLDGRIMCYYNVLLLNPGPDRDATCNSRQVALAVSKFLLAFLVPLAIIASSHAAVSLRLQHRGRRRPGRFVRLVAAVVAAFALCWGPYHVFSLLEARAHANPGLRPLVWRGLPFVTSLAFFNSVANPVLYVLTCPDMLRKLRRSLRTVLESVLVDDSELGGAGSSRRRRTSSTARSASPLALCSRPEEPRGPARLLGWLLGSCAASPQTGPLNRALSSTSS

[9] = target: T7, CCR2 (Homo sapiens, UniProt P41597); experiment: PathHunter β-arrestin assay; conditions: screen, control agonist; CHO, 37C, 2HR
T7 construct: purchased Eurofins DiscoverX (PathHunter gpcrMAX)
T7 sequence (P41597 whole entry): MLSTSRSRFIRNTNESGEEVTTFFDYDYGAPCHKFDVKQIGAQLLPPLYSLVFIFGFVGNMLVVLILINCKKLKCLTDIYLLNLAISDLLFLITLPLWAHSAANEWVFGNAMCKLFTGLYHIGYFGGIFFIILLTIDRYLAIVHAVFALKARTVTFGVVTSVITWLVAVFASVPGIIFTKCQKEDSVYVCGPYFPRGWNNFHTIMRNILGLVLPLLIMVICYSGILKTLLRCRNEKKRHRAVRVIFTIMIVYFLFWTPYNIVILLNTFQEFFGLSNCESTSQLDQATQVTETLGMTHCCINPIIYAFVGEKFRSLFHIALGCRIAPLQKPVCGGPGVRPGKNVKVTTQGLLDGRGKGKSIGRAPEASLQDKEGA

[10] = target: T8, CCR5 (Homo sapiens, UniProt P51681); experiment: PathHunter β-arrestin assay; conditions: screen, control agonist; CHO, 37C, 2HR
T8 construct: purchased Eurofins DiscoverX (PathHunter gpcrMAX)
T8 sequence (P51681 whole entry): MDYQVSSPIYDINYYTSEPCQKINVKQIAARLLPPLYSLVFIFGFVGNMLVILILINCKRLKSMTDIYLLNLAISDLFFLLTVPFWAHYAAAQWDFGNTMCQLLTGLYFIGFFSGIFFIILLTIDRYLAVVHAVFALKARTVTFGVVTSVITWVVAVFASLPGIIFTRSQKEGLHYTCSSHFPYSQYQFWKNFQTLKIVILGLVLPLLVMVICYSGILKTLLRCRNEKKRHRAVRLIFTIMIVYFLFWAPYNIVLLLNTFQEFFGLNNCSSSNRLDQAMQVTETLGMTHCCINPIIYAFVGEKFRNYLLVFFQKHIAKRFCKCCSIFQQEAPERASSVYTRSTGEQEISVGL

[11] = target: T9, CCR1 (Homo sapiens, UniProt P32246); experiment: PathHunter β-arrestin assay; conditions: screen, control agonist; CHO, 37C, 2HR
T9 construct: purchased Eurofins DiscoverX (PathHunter gpcrMAX)
T9 sequence (P32246 1-355): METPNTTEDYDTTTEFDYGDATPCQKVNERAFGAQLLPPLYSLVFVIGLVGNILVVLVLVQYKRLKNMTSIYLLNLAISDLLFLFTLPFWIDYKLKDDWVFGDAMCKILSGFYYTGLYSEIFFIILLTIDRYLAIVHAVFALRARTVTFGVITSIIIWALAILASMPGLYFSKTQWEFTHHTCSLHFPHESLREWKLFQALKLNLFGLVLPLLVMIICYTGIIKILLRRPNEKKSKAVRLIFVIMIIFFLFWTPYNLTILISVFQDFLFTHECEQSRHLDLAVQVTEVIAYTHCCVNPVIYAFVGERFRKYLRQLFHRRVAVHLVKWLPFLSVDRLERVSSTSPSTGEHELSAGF

[12] = target: T10, CCR3 (Homo sapiens, UniProt P51677); experiment: PathHunter β-arrestin assay; conditions: screen, control agonist; CHO, 37C, 2HR
T10 construct: purchased Eurofins DiscoverX (PathHunter gpcrMAX)
T10 sequence (P51677 1-355): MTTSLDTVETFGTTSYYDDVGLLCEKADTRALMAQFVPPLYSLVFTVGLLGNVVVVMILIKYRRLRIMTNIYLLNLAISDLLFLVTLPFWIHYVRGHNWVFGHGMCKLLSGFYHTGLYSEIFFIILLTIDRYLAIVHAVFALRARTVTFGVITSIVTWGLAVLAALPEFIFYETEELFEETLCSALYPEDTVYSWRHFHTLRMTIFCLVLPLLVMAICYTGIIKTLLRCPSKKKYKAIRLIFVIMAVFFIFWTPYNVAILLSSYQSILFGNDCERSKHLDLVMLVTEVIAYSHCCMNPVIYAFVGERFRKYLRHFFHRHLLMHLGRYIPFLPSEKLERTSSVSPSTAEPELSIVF

[13] = target: T11, CCR7 (Homo sapiens, UniProt P32248); experiment: PathHunter β-arrestin assay; conditions: screen, control agonist; CHO, 37C, 2HR
T11 construct: purchased Eurofins DiscoverX (PathHunter gpcrMAX)
T11 sequence (P32248 25-378): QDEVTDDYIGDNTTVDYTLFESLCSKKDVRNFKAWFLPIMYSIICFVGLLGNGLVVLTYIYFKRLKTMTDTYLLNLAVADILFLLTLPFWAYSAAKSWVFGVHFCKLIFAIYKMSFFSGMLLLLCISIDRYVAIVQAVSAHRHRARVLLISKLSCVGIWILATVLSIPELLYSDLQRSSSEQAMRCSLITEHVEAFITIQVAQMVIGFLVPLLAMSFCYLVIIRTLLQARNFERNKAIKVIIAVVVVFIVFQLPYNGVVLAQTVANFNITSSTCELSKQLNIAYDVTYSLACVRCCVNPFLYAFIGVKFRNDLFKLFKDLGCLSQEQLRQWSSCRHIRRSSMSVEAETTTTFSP

[14] = target: T12, CXCR2 (Homo sapiens, UniProt P25025); experiment: PathHunter β-arrestin assay; conditions: screen, control agonist; CHO, 37C, 2HR
T12 construct: purchased Eurofins DiscoverX (PathHunter gpcrMAX)
T12 sequence (P25025 1-360): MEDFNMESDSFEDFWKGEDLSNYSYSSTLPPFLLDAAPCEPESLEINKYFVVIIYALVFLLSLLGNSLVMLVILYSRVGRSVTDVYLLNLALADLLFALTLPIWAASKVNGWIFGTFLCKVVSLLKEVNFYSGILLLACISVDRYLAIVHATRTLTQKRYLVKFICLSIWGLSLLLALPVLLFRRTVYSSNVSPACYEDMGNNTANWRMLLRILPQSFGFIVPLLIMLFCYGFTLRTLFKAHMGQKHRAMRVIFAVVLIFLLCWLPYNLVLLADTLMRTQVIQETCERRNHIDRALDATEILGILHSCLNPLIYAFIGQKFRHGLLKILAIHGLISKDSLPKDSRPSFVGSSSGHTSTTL

[15] = target: T13, CXCR1 (Homo sapiens, UniProt P25024); experiment: PathHunter β-arrestin assay; conditions: screen, control agonist; U20S, 37C, 2HR
T13 construct: purchased Eurofins DiscoverX (PathHunter gpcrMAX)
T13 sequence (P25024 1-350): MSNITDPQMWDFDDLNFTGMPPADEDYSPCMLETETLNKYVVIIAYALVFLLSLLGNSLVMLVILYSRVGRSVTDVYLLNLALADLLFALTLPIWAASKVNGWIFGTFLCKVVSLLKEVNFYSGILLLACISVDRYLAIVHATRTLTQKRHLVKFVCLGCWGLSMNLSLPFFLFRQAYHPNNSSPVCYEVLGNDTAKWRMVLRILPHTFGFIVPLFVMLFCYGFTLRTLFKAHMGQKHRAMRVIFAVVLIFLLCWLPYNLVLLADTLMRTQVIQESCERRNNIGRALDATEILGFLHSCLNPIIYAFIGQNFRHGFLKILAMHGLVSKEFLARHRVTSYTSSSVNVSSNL

[16] = target: T14, CXCR3 (Homo sapiens, UniProt P49682); experiment: PathHunter β-arrestin assay; conditions: screen, control agonist; CHO, 37C, 2HR
T14 construct: purchased Eurofins DiscoverX (PathHunter gpcrMAX)
T14 sequence (P49682 1-368): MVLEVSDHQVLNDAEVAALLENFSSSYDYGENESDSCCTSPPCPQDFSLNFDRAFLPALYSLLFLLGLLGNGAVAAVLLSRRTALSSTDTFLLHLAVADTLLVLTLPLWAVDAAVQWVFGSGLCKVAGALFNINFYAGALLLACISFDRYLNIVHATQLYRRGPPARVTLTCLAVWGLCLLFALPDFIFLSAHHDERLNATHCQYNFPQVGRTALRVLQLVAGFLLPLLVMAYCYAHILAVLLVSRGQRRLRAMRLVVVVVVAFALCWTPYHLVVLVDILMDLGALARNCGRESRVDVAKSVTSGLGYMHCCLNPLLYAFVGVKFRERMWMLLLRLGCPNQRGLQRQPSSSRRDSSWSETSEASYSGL

[17] = target: T15, CXCR4 (Homo sapiens, UniProt P61073); experiment: PathHunter β-arrestin assay; conditions: screen, control agonist; C2C12, 37C, 2HR
T15 construct: purchased Eurofins DiscoverX (PathHunter gpcrMAX)
T15 sequence (P61073 whole entry): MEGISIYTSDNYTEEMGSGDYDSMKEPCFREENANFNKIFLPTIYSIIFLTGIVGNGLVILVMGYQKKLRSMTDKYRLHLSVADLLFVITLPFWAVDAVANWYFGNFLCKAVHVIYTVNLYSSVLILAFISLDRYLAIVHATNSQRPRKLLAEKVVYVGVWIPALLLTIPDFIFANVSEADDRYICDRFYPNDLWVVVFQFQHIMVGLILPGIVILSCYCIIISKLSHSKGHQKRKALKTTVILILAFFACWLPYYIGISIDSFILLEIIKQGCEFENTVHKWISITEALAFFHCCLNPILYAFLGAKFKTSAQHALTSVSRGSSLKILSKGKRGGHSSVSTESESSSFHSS

[18] = target: T16, CXCR5 (Homo sapiens, UniProt P32302); experiment: PathHunter β-arrestin assay; conditions: screen, control agonist; CHO, 37C, 2HR
T16 construct: purchased Eurofins DiscoverX (PathHunter gpcrMAX)
T16 sequence (P32302 1-372): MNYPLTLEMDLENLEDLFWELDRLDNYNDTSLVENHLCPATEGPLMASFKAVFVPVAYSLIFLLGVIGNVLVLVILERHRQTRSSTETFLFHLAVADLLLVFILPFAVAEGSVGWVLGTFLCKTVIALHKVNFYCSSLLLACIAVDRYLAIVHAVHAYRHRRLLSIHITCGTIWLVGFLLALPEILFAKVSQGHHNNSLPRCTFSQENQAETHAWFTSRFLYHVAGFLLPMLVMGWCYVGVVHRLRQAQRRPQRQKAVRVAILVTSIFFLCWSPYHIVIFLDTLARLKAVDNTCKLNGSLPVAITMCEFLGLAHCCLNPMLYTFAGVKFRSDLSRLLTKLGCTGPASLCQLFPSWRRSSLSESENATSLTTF

[19] = target: T17, CRHR2 (Homo sapiens, UniProt Q13324); experiment: PathHunter β-arrestin assay; conditions: screen, control agonist; CHO, RT, 2HR
T17 construct: purchased Eurofins DiscoverX (PathHunter gpcrMAX)
T17 sequence (Q13324 whole entry): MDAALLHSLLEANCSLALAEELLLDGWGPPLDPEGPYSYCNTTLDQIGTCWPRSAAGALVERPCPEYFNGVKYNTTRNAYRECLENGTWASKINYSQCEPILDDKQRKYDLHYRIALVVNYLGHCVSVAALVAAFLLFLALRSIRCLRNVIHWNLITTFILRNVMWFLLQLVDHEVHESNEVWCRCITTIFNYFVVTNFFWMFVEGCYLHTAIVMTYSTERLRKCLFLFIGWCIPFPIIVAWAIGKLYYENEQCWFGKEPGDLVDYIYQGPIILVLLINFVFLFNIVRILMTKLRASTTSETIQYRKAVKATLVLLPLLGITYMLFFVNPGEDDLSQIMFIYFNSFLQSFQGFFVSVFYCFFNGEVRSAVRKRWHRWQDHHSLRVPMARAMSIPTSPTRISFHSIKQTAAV

[20] = target: T18, CX3CR1 (Homo sapiens, UniProt P49238); experiment: PathHunter β-arrestin assay; conditions: screen, control agonist; CHO, 37C, 2HR
T18 construct: purchased Eurofins DiscoverX (PathHunter gpcrMAX)
T18 sequence (P49238 1-355): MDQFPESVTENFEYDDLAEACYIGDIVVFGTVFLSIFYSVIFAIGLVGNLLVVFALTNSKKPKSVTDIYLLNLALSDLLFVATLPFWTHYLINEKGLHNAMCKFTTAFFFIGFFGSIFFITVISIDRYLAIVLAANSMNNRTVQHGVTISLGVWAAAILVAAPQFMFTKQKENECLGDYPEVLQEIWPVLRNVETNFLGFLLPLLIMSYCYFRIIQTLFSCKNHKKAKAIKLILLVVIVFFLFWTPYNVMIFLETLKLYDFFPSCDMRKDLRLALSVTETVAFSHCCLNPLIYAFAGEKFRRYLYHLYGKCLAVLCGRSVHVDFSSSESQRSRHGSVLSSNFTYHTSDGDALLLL

## CC(=O)OCC[N+](C)(C)C [Acetylcholine]
[1]; follow-up concentration-response assays
  EC80: 24817 nM
[1]; screen, CHO, 37C, 2HR
  EC80: 24800 nM
[2]
  EC80: 3540 nM and 3539.3 nM
[3]
  EC80: 1030 nM
[4]
  EC80: 3910 nM

## CCCCCCC(C)(C)c1ccc([C@@H]2C[C@H](O)CC[C@H]2CCCO)c(O)c1 [CP55940]
[5]
  EC80: 4.12 nM
[6]; 1 h
  LDH in cell media, normalized to total LDH: 28.90 ± 7.81%
[6]; 6 h
  LDH increase compared with vehicle: no effect was observed
[7]
  EC80: 20.3 nM

## CCCCC[C@H](O)/C=C/[C@H]1C(=O)C[C@H](O)[C@@H]1C/C=C\CCCC(=O)O [PGD2]
[8]
  EC80: 23.8 nM

## CCL2: control agonist
[9]
  EC80: 6.98 nM

## CCL3: control agonist
[10]
  EC80: 10.1 nM
[11]
  EC80: 2.53 nM

## CCL13: control agonist
[12]
  EC80: 46.4 nM

## CCL19: control agonist
[13]
  EC80: 18.9 nM

## CXCL8: control agonist
[14]
  EC80: 0.953 nM
[15]
  EC80: 4.95 nM

## CXCL11: control agonist
[16]
  EC80: 17.9 nM

## CXCL12: control agonist
[17]
  EC80: 5.15 nM

## CXCL13: control agonist
[18]
  EC80: 61.3 nM

## Sauvagine
[19]
  EC80: 24.7 nM

B1: Fractalkine: control agonist (protein, UniProt P78423 25-397, looked up)
Fractalkine: QHHGVTKCNITCSKMTSKIPVALLIHYQQNQASCGKRAIILETRQHRLFCADPKEQWVKDAMQHLDRQAAALTRNGGTFEKQIGEVKPRTTPAAGGMDESVVLEPEATGESSSLEPTPSSQEAQRALGTSPELPTGVTGSSGTRLPPTPKAQDGGPVGTELFRVPPVSTAATWQSSAPHQPGPSLWAEAKTSEAPSTQDPSTQASTASSPAPEENAPSEGQRVWGQGQSPRPENSLEREEMGPVPAHTDAFQDWGPGSMAHVSVVPVSSEGTPSREPVASGSWTPKAEEPIHATMDPQRLGVLITPVPDAQAATRRQAVGLLAFLGLLFCLGVAMFTYQSLQGCPRKMAGEMAEGLRYIPRSCGSNSYVLVPV
[20]
  EC80: 1.92 nM

Reference: PMC9798004 (Frontiers in Psychiatry, 2022)
